From publication PMC4728504, “Determination of FVIIa-sTF Inhibitors in Toxic Microcystis Cyanobacteria by LC-MS Technique” (Marine Drugs, 2015)
“Also recorded” adds a separate entry of the source. Like-named read-outs stand apart in the source and are kept apart here.

Tests used:
fVIIa-sTF [1] = assay: fVIIa-sTF inhibitory assay; assay type: biochemical, human
Description: (§1) All assay experiments were done in a cold condition at 4 °C using an ice bucket until pre-incubation and reaction at 37 °C.
(§2) The fVIIa and fVIIa-sTF assays used L-α-cephalin buffer solution. The fVIIa-sTF assay was performed following the procedure by Nakagura et al. with modification. The L-α-cephalin as buffer solution was prepared as follows: Buffer (A): Five hundred milliliters (500 mL) of water was added to 6.057 g of Tris (hydroxymethyl)aminomethane (Nacalai Tesque, Kyoto, Japan) to make 100 mM Tris-HCl solution; 4.383 g NaCl (Nacalai Tesque) was added to the resulting solution to make […], and 500 mg bovine serum albumin (BSA) (Sigma, A7284, St. Louis, MO, USA) was added. The pH was adjusted to 7.40; Buffer (B): A 200 mL of Buffer A was added to 0.3329 g of CaCl2 (Nacalai Tesque). The resulting solution (Buffer B) was adjusted to pH 7.48 before it was stored at 4 °C in preparation for the next day experiment. A 30 µg/mL 3-sn-phosphatidylethanolamine from the bovine brain (Sigma, USA) or L-α-cephalin was added to Buffer B on the day of the experiment.
The same buffer preparation for fVIIa assay was used for the fVIIa-sTF inhibitory assay. The fVIIa: sTF ratio was 0.30 µg/mL: 0.39 µg/mL, and was prepared in Section 3.3.2.
(§3) The human factor VIIa (HFVIIa) enzyme, purchased from Enzyme Research Laboratories, South Bend, IN, USA, was added and adjusted with 20 mM Tris-HCl/0.1 M NaCl/pH 7.4. The final enzyme concentration should be 95.06 µg/mL. The 100 µL enzyme solutions were stored in plastic cryogenic vials (Iwaki: 2712-002, Tokyo, Japan) at −80 °C until use. The fVIIa enzyme, 95.06 µg/mL, and 100 µL volume solution was added to 7.822 mL of 3-sn-phosphatidylethanolamine buffer on the assay preparation.
The sTF or Recombinant Human Soluble Tissue Factor (F3-28H) or Human F3 was purchased from Creative Biomart, Shirley, NY, USA. The sTF was added with 10 mM PBS, pH 7.4, to make […] (25.624 µg/mL), and transferred in 300 µL volumes in plastic cryogenic vials (Iwaki: 2712-002, Tokyo, Japan), stored at −80 °C until use. The sTF solution (25.624 µg/mL, 300 µL) was added to 4.7 mL of the 3-sn-phosphatidylethanolamine buffer in an amber bottle before use.
The 30 µL buffer, 100 µL fVIIa-sTF, and 20 µL sample solutions were added to a well in a 96-well plate. The solution was pre-incubated at 37 °C for 5 min, together with 1 mM Chromozym t-PA in water as a substrate. A 50-µL substrate was added to start the reaction, agitated, and the absorbance was monitored at 405 nm using Thermo Scientific Multiskan FC microplate photometer.

fVIIa [2] = molecular target: T1, fVIIa (Homo sapiens, UniProt P08709); assay: fVIIa inhibitory assay (cephalin buffer, without sTF); assay type: biochemical; settings: for fVIIa inhibitory activity, in words: concentration not given; for fVIIa inhibition, slow binding, in words: 10 and 1 µg/mL, L-α-cephalin buffer, without sTF, three to six hours
T1 construct: purchased Enzyme Research Laboratories, South Bend, IN, USA HFVIIa
T1 sequence (P08709 213-466): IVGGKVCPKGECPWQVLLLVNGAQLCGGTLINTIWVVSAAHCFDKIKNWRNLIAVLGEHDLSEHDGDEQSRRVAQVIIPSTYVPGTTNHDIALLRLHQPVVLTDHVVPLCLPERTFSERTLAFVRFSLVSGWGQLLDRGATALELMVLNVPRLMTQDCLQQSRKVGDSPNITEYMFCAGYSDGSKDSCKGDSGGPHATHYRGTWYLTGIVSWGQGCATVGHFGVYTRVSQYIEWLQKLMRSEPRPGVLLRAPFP
T1 sequence (P08709 61-212): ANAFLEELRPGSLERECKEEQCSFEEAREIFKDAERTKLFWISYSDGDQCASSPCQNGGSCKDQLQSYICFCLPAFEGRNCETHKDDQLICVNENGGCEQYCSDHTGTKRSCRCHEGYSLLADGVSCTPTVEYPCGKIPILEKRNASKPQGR
Description: as §1, §2
The 80 µL 3-sn-phosphatidylethanolamine buffer, 50 µL of […] fVIIa enzyme in a buffer, and 20 µL of sample solution were dispensed in each well of a 96-well plate (Iwaki: 3881-096, Tokyo, Japan). The 96-well plate with the solution was pre-incubated at 37 °C for 5 min separately together with 1 mM of Chromozyme t-PA (N-Methylsulfonyl-D-Phe-Gly-Arg-4-nitranilide acetate), from Roche Diagnostics (Mannheim, Germany), dissolved in water as a substrate. The 50 µL of the substrate was added, and the mixture was agitated to start the reaction.
as §3

thrombin = thrombin (Homo sapiens, UniProt P00734); assay: Thrombin inhibitory assay; assay type: biochemical
fVIIa-sTF [3] = settings: P1 moiety; cited from earlier work
Text: We have detected aeruginosins 98A (36) and B (37) from M. aeruginosa NIES-98. The MeOH fractions from the aforementioned cyanobacteria are not active in the fVIIa-sTF assay. Thus, from our readings, we compare the fVIIa-sTF inhibitory activity of aeruginosins to phenylamidine. […] The presence of the cyclic amino alcohol moiety in aeruginosins may contribute to efficient binding against fVIIa. However, this hypothesis needs to be established by a structure–ac ...

fVIIa [4] = settings: cited from earlier work

Molecule: microcystin-YR [Compound 20, reference compound]
- fVIIa-sTF inhibition, in words (fVIIa-sTF [1]): not active

Molecule: aeruginosin K139 [Compound 30]
- active compound attributed by LC-MS in fVIIa-sTF active fraction (fVIIa-sTF [1]; dereplication by LC-MS of active fraction, not tested as pure compound): active component; also recorded: active compound
- fVIIa inhibitory activity, in words (fVIIa [2]): dual inhibitory activity
- thrombin inhibitory activity, in words (thrombin; aeruginosins or MeOH fractions, concentration not given): dual inhibitory activity

Molecule: oscillapeptin G [Compound 10]
- fVIIa inhibition, slow binding, in words (fVIIa [2]): active against fVIIa with slow binding and inhibition from three to six hours

Molecule: microcystin-LR [Compound 18, reference compound]
- fVIIa-sTF inhibition, in words (fVIIa-sTF [1]): not active

Molecule: spumigins A [Compound 21]
- fVIIa-sTF inhibition, in words (fVIIa-sTF [1]; pure compounds or compound class): do not inhibit
- fVIIa inhibitory activity, in words (fVIIa [2]): do not inhibit
- thrombin inhibition, in words (thrombin; 100 µg/mL, after a long-term storage): active

Molecule: N=C(N)c1ccccc1 [phenylamidine]
- fVIIa-sTF inhibitory activity, in words (fVIIa-sTF [3]): inhibitory activity against fVIIa-sTF

Molecule: oscillarin
- fVIIa inhibition, in words (fVIIa [4]): fVIIa and thrombin inhibitors

Molecule: aeruginopeptin 228-B [Compound 3]
- fVIIa inhibition, slow binding, in words (fVIIa [2]): active against fVIIa with slow binding and inhibition from three to six hours

Molecule: microcystin-RR [Compound 19, reference compound]
- fVIIa-sTF inhibition, in words (fVIIa-sTF [1]): not active

Molecule: oscillapeptilide 97A [Compound 11]
- fVIIa inhibition, slow binding, in words (fVIIa [2]): active against fVIIa with slow binding and inhibition from three to six hours
